Results on seven molecules are retold here after US8901177B2, “Method of treating bladder disorders” (Targacept, Inc., priority 2012, dated 2014).

The conditions of data set [1]: racemic Inversine 2.5 mg BID, spinal cord injury subjects; cited from earlier work.
The target in the next data set is T1, human α3β4 channels (Homo sapiens, UniProt P30926+P32297).
T1 construct: host or cells: CHO cells
Briefly: Use-dependent inhibition of human α3β4 channels expressed in CHO cells (Dynaflow electrophysiology). In kind it is cell-based. As for the experimental part:
There was an assumption that the dependence on the number of co-applications would be the most relevant to clinical concentrations, since upon the time of exposure in vivo, the number of open channels could reach substantial numbers; perhaps due to channel spontaneous opening, flickering, and endogenous transmitter release as a result of brain activity. All experiments were performed using a conventional Dynaflow (Cellectricon Inc.) electrophysiological system. Dynaflow settings: To achieve continuous exposure to the drug we used following Dynaflow chip loading. An example of standard chip loading for use-dependent experiments with example for 30 μM ACh and 0.1 μM of TC-05231 (racemic mecamylamine). For the following experiments, ACh always consisted of 30 μM and concentrations of compounds were, 0.03, 0.1, 0.3 and 1.0 (μM). FIG. 13 illustrates the settings.
Applications were performed by positioning the cell in front of channel #1 for 1 second, followed by channel #3, then back to channel #1 by rapidly moving the Dynaflow chip, which consisted of both the laminar flow from the channels and the entire bath solution. The additional channels between control and ACh-containing channel were used: (1) to provide the needed space for an additional washout to avoid contaminating the control channels with the agonist solution; and (2) to allow for the necessary amount of time for the Dynaflow stage to reach its optimum scanning speed.
3.1. Establishment of recording baseline: First, pipette with cells moved to channel #3. Then cells were exposed to ACh by moving cells to channel #1 for 1 second and back to channel #3. This movement of cells was repeated 10 times at 30 second intervals;
3.2. Collection data on use-dependent inhibition: After establishment of stable baseline, cells were moved to channel #6 and exposed to a test compound for 30 sec. Then cells were moved to channel #8 for 1 second and back to channel #6 for 30 seconds (total 10 times with intervals 30 seconds); and 3.3. To test reversibility of block (washout): repeat step 1. Note: with this chip setting, during repeated application of acetylcholine plus test compound, there was no interruption in application of compounds. For all calculations, peak current amplitude was normalized to the peak current amplitude evoked by the 10th application of acetylcholine. Experimental Results

A further data set deals with NMDA receptor NR1a-NR2A (Homo sapiens, UniProt Q05586+Q12879). Put plainly: Glutamate-evoked currents at NR1a-NR2A receptors in Xenopus oocytes (two electrode voltage-clamp). In kind it is cell-based. The conditions noted are these: for recovery following wash-out: after sustained exposure. As for the experimental part:
All experiments were carried out at receptors expressed in Xenopus oocytes using the method of cDNA expression. Currents evoked by glutamate were recorded using the standard two electrode voltage-clamp configuration (TVEC). Xenopus oocytes were prepared and injected using standard procedures.
Briefly, ovaries are harvested from Xenopus Laevis females that have been deeply anesthetized and pithed following the animal rights rule from the Geneva canton. A small piece of ovary is isolated for immediate preparation while the remaining part is placed at 4° C. in a sterile Barth solution containing in mM NaCl 88, KCl 1, NaHCO3 2.4, HEPES 10, MgSO4.7H2O 0.82, Ca(NO3)2.4H2O 0.33, CaCl2.6H2O 0.41, at pH 7.4, and supplemented with 20 μg/ml of kanamycine, 100 unit/ml penicillin and 100 μg/ml streptomycin. On the second day following dissociation, oocytes are injected with 2 ng of cDNA per oocyte containing the NR1a-NR2A or NR1a-NR2B using an automated injector (Hogg et al., J. Neurosci. Methods, 2008). […] Cells were held at −80 mV. Data were filtered at 10 Hz, captured at 100 Hz and analyzed using HiQ proprietary data acquisition and analysis software running under Matlab (Mathworks Inc.).
Oocytes expressing the NR1a-NR2A or NR1a-NR2B receptors were challenged at periodic intervals with a glutamate test pulse. Test drug was then applied during a sustained period and its effects monitored by measuring the amplitude and time course of the glutamate evoked currents.
Experiments were carried out with the NR1a-NR2A and NR1a-NR2B at least in triplicate. Positive reference compounds (ketamine and MK-801) were tested using the same protocol.
To further evaluate effects of TC-5214, experiments using sustained exposure to this compound followed by a recovery period were carried out at NR1a-NR2A and NR1a-NR2B receptors. Measurements were made with (nM) 0, 3, 10, 30, 100, 300, TC-5214 and recovery monitored during 10 minutes. In addition, the same experimental protocol will be used with cells in control conditions to assess the stability of the measurements. Effects were measured in at least three cells.
A use-dependent protocol was used to identify non-competitive inhibition of the receptors. Cells expressing the NMDA receptors were tested for their sensitivity to TC-5214 at 30 nM, using the same protocol as described above. Cells from the same batch were tested in parallel using the same incubation time with an identical concentration of TC-5214 (30 nM) but in absence of pulses during the incubation time with the compound. Two glutamate pulses were applied at the end of the incubation time, and recovery monitored as for the control conditions.
On the technique in general: Two-electrode voltage clamp is typically applied to oocytes expressing channels or transporters.

Data set [2] in a line: TC-5213 28-day repeated oral toxicity study in rats. In kind it is in vivo, rat. As for the experimental part: Eighty rats (40/sex) were assigned to 4 groups of 10/sex/group. Test article in purified water or water (vehicle) alone were administered once daily via oral gavage at a dose volume of 10 mL/kg. The dose levels were 0, 1, 10, and 50 mg/kg/day. Animals were given TC-5213-23 orally (gavage) for 28 days except those given the test article at 50 mg/kg from Day 1 to 7, followed by a dose of 40 mg/kg/day on the subsequent 21 days. The dose levels were calculated based on the free base form of the test article.

Data set [3] relates to bladder function in conscious rats. Briefly: Intravesical model in conscious rats, first study (UROsphere), cystometry. In kind it is in vivo, rat. The conditions noted are these: tolterodine 10 μM, TC-5213 1 and 10 μM, hexamethonium 10 μM, TC-5214 0.1, 1 and 10 μM. The source says: (1) In a first study (performed by UROsphere), female Sprague Dawley rats (200-270 g) from Charles River France, housed in 3-4 rats per cage were anesthetized with isoflurane (1.5-3%). […], a polyethylene catheter was implanted in the bladder through the dome and exteriorized at the scapular level. Each rat was housed individually after surgery. The cystometry is depicted in FIG. 2. This is the first known experiment using the intravesical model in conscious rats to test dexmecamylamine for potential efficacy in treating OAB.
The effects of dosing dexmecamylamine (also referred to as TC-5214 and as TI-11179), at doses of 0.1, 1, and 10 μM are depicted in FIG. 4.
The effects of dosing hexamethonium (10 μM) and tolterodine (10 μM) are depicted in FIG. 5.

In data set [4] the test system is nicotinic receptors expressed in rat urinary bladder epithelial cells. The conditions noted are these: intravesical; nicotine 0.05 and 1 μM, hexamethonium 10 and 100 μM, choline 10 and 100 μM; cited from earlier work.
Data set [5] relates to bladder function in anesthetized rats. Briefly: Intravesical model in anesthetized rats (increased bladder contraction frequency), cystometry. In kind it is in vivo, rat. The conditions noted are these: 10 μM intravesical. As for the experimental part: Female Sprague Dawley rats (200-290 g) from Charles River France, housed in 3-4 rats per cage were anesthetized with urethane (1.2 g/kg) s.c., 3 mL/kg). A polyethylene catheter was implanted into the bladder through the dome. Ureters were tied and cut. Intravesical infusion periods with saline followed by an intravesical infusion period with one of the test compounds, hexamethonium (10 μM) or dexmecamylamine (1 and 10 μM), are depicted in FIG. 7.
The intravesical anesthetized rat model is a model of increased bladder contraction frequency. The model is a “simplified” well established model used to evaluate OAB agents, recognizing that there are decreased inputs from cortical centers. This is the first known experiment using the intravesical anesthetized rat model of increased bladder contraction frequency to test dexmecamylamine for potential efficacy in treating OAB.

Where [6] appears, read: 50 mg/kg/day oral, first week, after three to seven doses.

Read-outs that look alike come from different tables or passages of the source.

NMDA receptor NR1a-NR2A, sequence (Q12879 23-1464, other chains not shown): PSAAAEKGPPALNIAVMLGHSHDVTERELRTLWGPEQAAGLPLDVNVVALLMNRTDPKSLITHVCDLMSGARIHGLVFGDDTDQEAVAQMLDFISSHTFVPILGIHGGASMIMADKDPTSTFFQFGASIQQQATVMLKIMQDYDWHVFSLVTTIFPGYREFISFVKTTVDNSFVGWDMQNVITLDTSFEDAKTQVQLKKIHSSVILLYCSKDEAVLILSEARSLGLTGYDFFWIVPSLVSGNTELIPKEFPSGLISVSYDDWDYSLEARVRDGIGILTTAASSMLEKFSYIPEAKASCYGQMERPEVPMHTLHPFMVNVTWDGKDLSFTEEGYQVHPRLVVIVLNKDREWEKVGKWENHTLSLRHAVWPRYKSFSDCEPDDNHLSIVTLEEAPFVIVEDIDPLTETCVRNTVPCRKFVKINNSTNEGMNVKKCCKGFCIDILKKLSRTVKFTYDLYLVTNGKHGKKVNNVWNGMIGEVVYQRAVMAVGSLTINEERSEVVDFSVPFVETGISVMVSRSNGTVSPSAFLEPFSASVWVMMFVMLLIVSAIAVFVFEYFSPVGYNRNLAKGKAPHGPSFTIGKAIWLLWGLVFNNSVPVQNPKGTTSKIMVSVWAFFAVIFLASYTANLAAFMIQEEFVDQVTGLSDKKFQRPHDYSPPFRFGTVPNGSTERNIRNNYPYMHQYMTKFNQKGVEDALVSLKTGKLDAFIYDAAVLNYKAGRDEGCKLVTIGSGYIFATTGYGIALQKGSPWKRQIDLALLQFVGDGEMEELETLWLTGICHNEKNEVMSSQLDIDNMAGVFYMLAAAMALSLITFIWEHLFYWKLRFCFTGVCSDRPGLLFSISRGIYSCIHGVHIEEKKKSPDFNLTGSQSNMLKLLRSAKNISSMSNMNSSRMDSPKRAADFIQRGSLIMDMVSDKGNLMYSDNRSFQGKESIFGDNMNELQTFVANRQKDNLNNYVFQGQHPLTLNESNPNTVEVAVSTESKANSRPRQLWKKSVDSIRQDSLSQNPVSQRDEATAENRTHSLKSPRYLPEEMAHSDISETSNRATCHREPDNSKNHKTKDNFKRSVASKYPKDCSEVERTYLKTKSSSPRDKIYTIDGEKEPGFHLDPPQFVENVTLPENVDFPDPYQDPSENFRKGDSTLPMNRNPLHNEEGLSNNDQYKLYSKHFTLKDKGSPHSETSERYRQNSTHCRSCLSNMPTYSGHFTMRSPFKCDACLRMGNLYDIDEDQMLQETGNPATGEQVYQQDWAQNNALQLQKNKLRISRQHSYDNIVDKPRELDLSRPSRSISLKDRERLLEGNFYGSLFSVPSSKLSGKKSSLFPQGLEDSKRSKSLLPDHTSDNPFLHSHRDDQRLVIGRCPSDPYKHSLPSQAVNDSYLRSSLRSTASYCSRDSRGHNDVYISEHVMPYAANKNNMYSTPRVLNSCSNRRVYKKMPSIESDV
T1 sequence (P32297 32-505): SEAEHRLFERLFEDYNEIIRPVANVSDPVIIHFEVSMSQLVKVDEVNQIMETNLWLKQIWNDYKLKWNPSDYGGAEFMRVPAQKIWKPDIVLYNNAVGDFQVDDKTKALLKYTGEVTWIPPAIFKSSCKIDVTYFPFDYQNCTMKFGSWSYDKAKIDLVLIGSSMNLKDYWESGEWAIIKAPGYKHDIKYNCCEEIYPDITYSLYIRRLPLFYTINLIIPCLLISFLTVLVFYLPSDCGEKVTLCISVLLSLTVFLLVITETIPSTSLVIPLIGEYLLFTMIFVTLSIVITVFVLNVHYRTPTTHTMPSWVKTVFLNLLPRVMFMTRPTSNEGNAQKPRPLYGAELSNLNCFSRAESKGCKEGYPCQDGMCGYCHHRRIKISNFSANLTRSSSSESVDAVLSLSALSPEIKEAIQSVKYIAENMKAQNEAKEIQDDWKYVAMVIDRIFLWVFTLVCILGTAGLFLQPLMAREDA
T1 sequence (P30926 22-498): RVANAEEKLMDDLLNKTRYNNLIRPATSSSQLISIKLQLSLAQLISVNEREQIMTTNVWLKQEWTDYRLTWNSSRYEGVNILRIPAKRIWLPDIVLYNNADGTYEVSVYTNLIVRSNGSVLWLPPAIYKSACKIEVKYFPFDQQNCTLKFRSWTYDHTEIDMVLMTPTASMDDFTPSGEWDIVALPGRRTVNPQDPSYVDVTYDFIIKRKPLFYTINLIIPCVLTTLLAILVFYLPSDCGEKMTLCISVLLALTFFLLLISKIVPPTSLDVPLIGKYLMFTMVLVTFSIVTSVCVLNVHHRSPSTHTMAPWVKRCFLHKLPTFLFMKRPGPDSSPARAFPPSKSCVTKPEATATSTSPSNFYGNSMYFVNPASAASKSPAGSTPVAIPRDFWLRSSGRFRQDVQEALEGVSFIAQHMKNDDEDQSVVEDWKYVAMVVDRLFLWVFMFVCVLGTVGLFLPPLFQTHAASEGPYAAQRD

Take `CNC1(C)C2CCC(C2)C1(C)C.Cl` (racemic) [TC-5231, N,2,3,3-tetramethylbicyclo[2.2.1]heptan-2-amine hydrochloride, reference compound]: the “bladder electric potential (amplitude of contraction)” value in data set [1] was “decrease in bladder electric potential (amplitude of contraction)”. Also, the “Inhibition by (%)” value at human α3β4 channels (100 nM compound, after 10 co-applications of 30 uM Ach and compound, hydrochloride) is given as 25% ± 7%. Further, the activity at 0.03 µM at human α3β4 channels (CHO, 30 nM compound + 30 μM ACh, successive grid rows = co-applications 1 to 10, control = 100, read-out: peak current amplitude normalized to 10th ACh application, use-dependent inhibition box) came to 99.3%. In addition, the activity at 0.1 µM at human α3β4 channels (CHO, 100 nM compound + 30 μM ACh, successive grid rows = co-applications 1 to 10 at 30 s intervals, control = 100, read-out: peak current amplitude normalized to 10th ACh application, use-dependent inhibition box) amounted to 94.5%. Moreover, the inhibition (usually how much of the control response was suppressed) at 0.1 µM at human α3β4 channels (CHO, 100 nM compound with acetylcholine, read-out: inhibition of human α3β4 receptor (asymptotes to the curve, FIG. 14)) is 20%; at human α3β4 channels (CHO, 100 nM compound, after 10 co-applications of 30 uM Ach and compound, read-out: Inhibition by (%)), 24.8%. Also, at human α3β4 channels (after 100 nM compound, following 10 application of Ach (30 uM) alone), the “recovery (%)” value is listed as 105% ± 11%. At human α3β4 channels (after 30 and 100 nM compound, agonist alone), the “recovery / persistence of inhibition after wash out” value is listed as “full recovery”.
As for `C[C@]12N[C@H](Cc3ccccc31)c1ccccc12` [MK-801, reference compound], the recovery following wash-out result at NMDA receptor NR1a-NR2A was “little evidence of recovery”. Also, the “inhibition by positive control” value against NMDA receptor NR1a-NR2A (sustained exposure, glutamate test pulses) was “nearly complete inhibition”.
For the molecule `CN[C@]1(C)[C@H]2CC[C@H](C2)C1(C)C` [TC-5213, exo-R-mecamylamine], in data set [2] (50 mg/kg/day oral), the “distended urinary bladder, full of urine, in early dead animals: females” value is listed as 2 and the “distended urinary bladder, full of urine, in early dead animals: males” value is recorded as 3. Moreover, in data set [2] (setting [6]), the “early deaths, females” value was 5/10 and the “early deaths, males” value is recorded as 4/10. The “mortality, organ weight and microscopic changes” value in data set [2] (50→40 mg/kg/day daily oral) is “resulted in mortality, organ weight and/or microscopic changes”. Besides, in data set [2] (28 days oral, males and females), the “No-Observed-Effect-Level (NOEL)” value was 1 mg/kg/day. For the same molecule, in data set [2] (rat, in vivo), the opthalmological examinations entry was “No test article related changes”. Besides, in data set [2] (rat, in vivo, 40 mg/kg/day), the clinical pathology changes result was “slight increases in neutrophils; slight decreases in lymphocyte and platelets; slight increases in ALT, AST, and calcium”; the “organ weights at necropsy” value is “decreased organ weights of prostate gland, seminal vesicles and thymus”. Besides, in data set [3], the “significant effects in cystometry” value was “significant effects”.
Turning to `C[N+](C)(C)CCCCCC[N+](C)(C)C` [hexamethonium], the “significant effects on nicotinic receptors expressed in rat urinary bladder epithelial cells” value in data set [4] is given as “significant effects”. For the same molecule, the “changes in the frequency of bladder contraction” value in data set [5] is “meaningful changes”.
Consider `CNC1(c2ccccc2Cl)CCCCC1=O` (stereo not shown) [ketamine, reference compound], for which the recovery following wash-out entry at NMDA receptor NR1a-NR2A is “clear evidence for recovery”.
Take `CN1CCCC1c1cccnc1` (stereo not shown) [nicotine]: the “significant effects on nicotinic receptors expressed in rat urinary bladder epithelial cells” value in data set [4] is listed as “significant effects”.
For the molecule `Cc1ccc(O)c([C@H](CCN(C(C)C)C(C)C)c2ccccc2)c1` [tolterodine], the “significant effects in cystometry” value in data set [3] is “significant effects”.
